Measurements taken from patent publication US20260347361A1, “LRRK2 INHIBITORS AND USES THEREOF” (NEURON23, INC, priority 2022, published 2026).

Biological target: T1, wt human LRRK2 (Homo sapiens, UniProt Q5S007)
T1 construct: wt human LRRK2, catalytic site, catalytic site (ThermoFisher/USA); purchased ThermoFisher
Assay: TR-FRET LanthaScreen Tb Kinase Activity Assay, inhibition of LRRK2 kinase
Type: biochemical
Details: 2 nM wt human LRRK2, 400 nM fluorescein-ERM (LRRKtide) peptide, 38 µM ATP, 15 min pre-incubation, 120 min at room temperature
Procedure: In Table 2, activity is provided as the following: “+++”=IC50 less than 50 nM; “++”=IC50 between 50 nM and 200 nM; “+”=IC50> or =200 nM.
The compounds listed in Table 2 were tested for their inhibitory effect on LRRK2 kinase according to the following procedures.
The protocol for basic TR-FRET LanthaScreen Tb Kinase Activity Assay inhibitor studies were as follows. LanthaScreen Kinase Activity Assays (ThermoFisher/USA) to evaluate inhibitors were performed by addition of 100 nl of test compound in corresponding DMSO dilutions/5 μl of kinase/fluorescein-ERM(LRRKtide) peptide mixture, Compound & kinase were pre-incubated for 15 minutes, then 5 μl of ATP into 384 well small volume plates. After incubation for 120 minutes at room temperature, the detection reagents containing Tb-anti-pLRRKtide antibody were added to monitor phosphorylation level of peptide. Then, after 60 min minutes incubation at room temperature plates were read in Envision. Data analysis of emission ratios was according to LanthaScreen Tb Kinase Activity Assay protocol.
Kinase and assay components were adjusted to final concentrations according to the kit protocol. For LRRK2: 2 nM wt human LRRK2, catalytic site, catalytic site (ThermoFisher/USA), 400 nM peptide, 38 µM ATP in 1× Kinase Buffer A.
Basic protocol for TR-FRET LanthaScreen Tb Kinase Activity Assay inhibitor studies involved two steps:
Enzymatic step: Addition of […] of test compound in corresponding DMSO dilutions, 5 μL of kinase/substrate mixture, 5 μL of ATP into 384 well small volume plates. Incubation for 120 minutes at room temperature.
Detection step: Addition of 10 μL EDTA & antibody, read plate after 60 minutes. Data analysis of emission ratios according to KinEASE assay protocol.
Kinase and assay components were adjusted to final concentrations according to the kit protocol.

T1 sequence (Q5S007 970-2527 limits assumed): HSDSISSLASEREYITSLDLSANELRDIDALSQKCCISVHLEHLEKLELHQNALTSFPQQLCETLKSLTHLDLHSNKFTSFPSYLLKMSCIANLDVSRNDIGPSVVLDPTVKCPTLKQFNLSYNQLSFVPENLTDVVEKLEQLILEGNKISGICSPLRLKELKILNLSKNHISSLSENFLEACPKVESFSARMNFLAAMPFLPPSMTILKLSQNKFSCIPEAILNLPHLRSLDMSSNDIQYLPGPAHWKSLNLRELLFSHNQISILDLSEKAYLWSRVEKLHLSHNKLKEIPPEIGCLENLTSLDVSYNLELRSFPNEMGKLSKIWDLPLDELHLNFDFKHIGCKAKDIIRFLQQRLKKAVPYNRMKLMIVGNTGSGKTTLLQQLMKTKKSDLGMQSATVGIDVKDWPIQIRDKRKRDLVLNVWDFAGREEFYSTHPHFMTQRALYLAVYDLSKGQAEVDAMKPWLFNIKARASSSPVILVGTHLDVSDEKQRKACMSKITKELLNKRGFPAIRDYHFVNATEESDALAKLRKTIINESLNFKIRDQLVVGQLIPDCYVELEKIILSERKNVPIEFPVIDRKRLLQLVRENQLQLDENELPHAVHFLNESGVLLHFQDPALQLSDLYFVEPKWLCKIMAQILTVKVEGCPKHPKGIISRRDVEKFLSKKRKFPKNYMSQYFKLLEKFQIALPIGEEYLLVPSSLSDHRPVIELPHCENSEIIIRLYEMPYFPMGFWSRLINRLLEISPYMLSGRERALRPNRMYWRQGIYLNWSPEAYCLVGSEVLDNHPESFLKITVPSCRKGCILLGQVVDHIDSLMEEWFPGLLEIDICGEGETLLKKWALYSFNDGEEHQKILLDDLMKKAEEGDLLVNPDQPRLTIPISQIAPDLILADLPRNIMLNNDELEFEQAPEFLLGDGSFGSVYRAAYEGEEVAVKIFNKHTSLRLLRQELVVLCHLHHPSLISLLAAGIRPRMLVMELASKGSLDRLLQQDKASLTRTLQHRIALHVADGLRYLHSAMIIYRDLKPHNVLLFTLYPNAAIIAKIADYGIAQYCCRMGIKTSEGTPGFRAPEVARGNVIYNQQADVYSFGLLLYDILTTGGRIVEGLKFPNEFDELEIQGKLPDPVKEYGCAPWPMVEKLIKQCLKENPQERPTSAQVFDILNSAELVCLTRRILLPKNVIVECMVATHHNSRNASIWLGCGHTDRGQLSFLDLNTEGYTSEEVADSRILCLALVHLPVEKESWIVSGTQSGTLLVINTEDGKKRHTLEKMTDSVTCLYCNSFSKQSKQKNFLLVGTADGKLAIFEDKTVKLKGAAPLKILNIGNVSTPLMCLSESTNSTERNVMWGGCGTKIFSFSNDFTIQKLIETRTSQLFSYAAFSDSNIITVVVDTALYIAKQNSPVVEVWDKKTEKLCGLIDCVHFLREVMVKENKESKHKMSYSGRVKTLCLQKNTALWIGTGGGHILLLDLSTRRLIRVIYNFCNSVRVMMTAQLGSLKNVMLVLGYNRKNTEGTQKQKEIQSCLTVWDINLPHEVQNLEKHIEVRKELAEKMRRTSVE

| Structure (SMILES) | IC50 [nM] |
| --- | --- |
| C[C@H]1CN(c2cc3c(cn2)NC(c2c(F)cccc2F)=Nc2ccnn2-3)C[C@H](C)O1 [(2S,6S)-4-(5-(2,6-difluorophenyl)-6H-pyrazolo[1,5-a]pyrido[3,4-f][1,3,5]triazepin-9-yl)-2,6-dimethylmorpholine] | < 50 |
| O=C(NO)c1ccc2c(c1)-n1ncc(Cl)c1N=C(c1c(F)cccc1F)N2 [3-chloro-5-(2,6-difluorophenyl)-6H-pyrazolo[1,5-a][1,3,5]benzotriazepine-9-carbohydroxamic acid] | < 50 |
| Fc1cccc(F)c1C1=Nc2c(Cl)cnn2-c2cc(N3CC(F)C3)ccc2N1 [3-chloro-5-(2,6-difluorophenyl)-9-(3-fluoroazetidin-1-yl)-6H-pyrazolo[1,5-a][1,3,5]benzotriazepine] | < 50 |
| C[C@H]1CN(c2cc3c(cn2)NC(c2c(F)cccc2F)=Nc2c(F)cnn2-3)CCO1 [(S)-4-(5-(2,6-difluorophenyl)-3-fluoro-6H-pyrazolo[1,5-a]pyrido[3,4-f][1,3,5]triazepin-9-yl)-2-methylmorpholine] | < 50 |
| Fc1cccc(Cl)c1C1=Nc2c(Cl)cnn2-c2cc(N3CCOCC3)ccc2N1 [4-[3-chloro-5-(2-chloro-6-fluoro-phenyl)-6H-pyrazolo[1,5-a][1,3,5]benzotriazepin-9-yl]morpholine] | < 50 |
| Fc1cccc(F)c1C1=Nc2c(Cl)cnn2-c2cc(N3CCC4(CC3)COC4)ccc2N1 [7-[3-chloro-5-(2,6-difluorophenyl)-6H-pyrazolo[1,5-a][1,3,5]benzotriazepin-9-yl]-2-oxa-7-azaspiro[3.5]nonane] | < 50 |
| O=C(NCCF)c1ccc2c(c1)-n1ncc(Cl)c1N=C(c1c(F)cccc1F)N2 [3-chloro-5-(2,6-difluorophenyl)-N-(2-fluoroethyl)-6H-pyrazolo[1,5-a][1,3,5]benzotriazepine-9-carboxamide] | < 50 |
| Cn1cc(-c2ccc3c(c2)-n2ncc(Cl)c2N=C(c2c(F)cccc2F)N3)cn1 [3-chloro-5-(2,6-difluorophenyl)-9-(1-methylpyrazol-4-yl)-6H-pyrazolo[1,5-a][1,3,5]benzotriazepine] | < 50 |
| O=C(NC1CCC1)c1ccc2c(c1)-n1ncc(Cl)c1N=C(c1c(F)cccc1F)N2 [3-chloro-N-cyclobutyl-5-(2,6-difluorophenyl)-6H-pyrazolo[1,5-a][1,3,5]benzotriazepine-9-carboxamide] | < 50 |
| C[C@H]1CN(c2cc3c(cn2)NC(c2c(F)cccc2F)=Nc2c(Cl)cnn2-3)C[C@H](C)O1 [(2S,6S)-4-[5-chloro-8-(2,6-difluorophenyl)-2,3,7,9,12-pentazatricyclo[8.4.0.02,6]tetradeca-1(10),3,5,7,11,13-hexaen-13-yl]-2,6-dimethyl-morpholine] | < 50 |
| Fc1cccc(F)c1C1=Nc2c(Cl)cnn2-c2cc(N3CCCOCC3)ccc2N1 [4-[3-chloro-5-(2,6-difluorophenyl)-6H-pyrazolo[1,5-a][1,3,5]benzotriazepin-9-yl]-1,4-oxazepane] | < 50 |
| Fc1cccc(F)c1C1=Nc2c(Cl)cnn2-c2cc(N3C4CCC3COC4)ccc2N1 [8-[3-chloro-5-(2,6-difluorophenyl)-6H-pyrazolo [1,5-a][1,3, 5]benzotriazepin-9-yl]-3-oxa-8-azabicyclo [3.2.1]octane] | < 50 |
| Fc1cccc(F)c1C1=Nc2c(Cl)cnn2-c2cc(N3C4COCC3C4)ccc2N1 [6-[3-chloro-5-(2,6-difluorophenyl)-6H-pyrazolo[1,5-a][1,3,5]benzotriazepin-9-yl]-3-oxa-6-azabicyclo[3.1.1]heptane] | < 50 |
| Fc1cccc(F)c1C1=Nc2c(Cl)cnn2-c2cc(N3CC[C@@H](F)C3)ccc2N1 [3-chloro-5-(2,6-difluorophenyl)-9-[(3R)-3-fluoropyrrolidin-1-yl]-6H-pyrazolo[1,5-a][1,3,5]benzotriazepine] | < 50 |
| C[C@@H]1COCCN1c1ccc2c(c1)-n1ncc(Cl)c1N=C(c1c(F)cccc1F)N2 [(3R)-4-[3-chloro-5-(2,6-difluorophenyl)-6H-pyrazolo[1,5-a][1,3,5]benzotriazepin-9-yl]-3-methyl-morpholine] | < 50 |
| Fc1cccc(F)c1C1=Nc2c(Cl)cnn2-c2cc(N3CC4(CC(F)C4)C3)ccc2N1 [3-chloro-5-(2,6-difluorophenyl)-9-(6-fluoro-2-azaspiro[3.3]heptan-2-yl)-6H-pyrazolo[1,5-a][1,3,5]benzotriazepine] | < 50 |
| Fc1cccc(F)c1C1=Nc2c(Cl)cnn2-c2cc(Br)ccc2N1 [9-bromo-3-chloro-5-(2,6-difluorophenyl)-6H-pyrazolo[1,5-a][1,3,5]benzotriazepine] | < 50 |

Now from value to molecule:

| IC50 [nM] | Structure (SMILES) |
| --- | --- |
| < 50 | NC(=O)c1ccc2c(c1)-n1ncc(Cl)c1N=C(c1c(F)cccc1F)N2 [3-chloro-5-(2,6-difluorophenyl)-6H-pyrazolo[1,5-a][1,3,5]benzotriazepine-9-carboxamide] |
| < 50 | Fc1cccc(F)c1C1=Nc2c(Cl)cnn2-c2cc(N3CCOCC3)cnc2N1 |
| < 50 | N#Cc1cnn2c1N=C(c1c(F)cccc1F)Nc1cnc(N3CCOCC3)cc1-2 [5-(2,6-difluorophenyl)-9-morpholino-6H-pyrazolo[1,5-a]pyrido[3,4-f][1,3,5]triazepine-3-carbonitrile] |
| < 50 | Fc1cccc(F)c1C1=Nc2c(Cl)cnn2-c2cc(N3CC4(COC4)C3)ccc2N1 [6-[3-chloro-5-(2,6-difluorophenyl)-6H-pyrazolo[1,5-a][1,3,5]benzotriazepin-9-yl]-2-oxa-6-azaspiro[3.3]heptane] |
| < 50 | Fc1cccc(F)c1C1=Nc2c(Cl)cnn2-c2cc(N3C[C@@H]4C[C@H]3CO4)ccc2N1 [(1S,4S)-5-[3-chloro-5-(2,6-difluorophenyl)-6H-pyrazolo[1,5-a][1,3,5]benzotriazepin-9-yl]-2-oxa-5-azabicyclo[2.2.1]heptane] |
| < 50 | CC(C)(C)NC(=O)c1ccc2c(c1)-n1ncc(Cl)c1N=C(c1c(F)cccc1F)N2 [N-(tert-butyl)-3-chloro-5-(2,6-difluorophenyl)-6H-benzo[f]pyrazolo[1,5-a][1,3,5]triazepine-9-carboxamide] |
| < 50 | O=C(NCC1CC1)c1ccc2c(c1)-n1ncc(Cl)c1N=C(c1c(F)cccc1F)N2 [3-chloro-N-(cyclopropylmethyl)-5-(2,6-difluorophenyl)-6H-pyrazolo[1,5-a][1,3,5]benzotriazepine-9-carboxamide] |
| < 50 | Fc1cccc(F)c1C1=Nc2c(Cl)cnn2-c2cc(N3C[C@H]4CC[C@@H]3CO4)ccc2N1 [(1R,4R)-5-[3-chloro-5-(2,6-difluorophenyl)-6H-pyrazolo[1,5-a][1,3,5]benzotriazepin-9-yl]-2-oxa-5-azabicyclo[2.2.2]octane] |
| < 50 | Fc1cccc(F)c1C1=Nc2c(Br)cnn2-c2cc(N3CCOCC3)ncc2N1 [4-(3-bromo-5-(2,6-difluorophenyl)-6H-pyrazolo[1,5-a]pyrido[3,4-f][1,3,5]triazepin-9-yl)morpholine] |
| < 50 | O=C(NC1COC1)c1ccc2c(c1)-n1ncc(Cl)c1N=C(c1c(F)cccc1F)N2 [3-chloro-5-(2,6-difluorophenyl)-N-(oxetan-3-yl)-6H-benzo[f]pyrazolo[1,5-a][1,3,5]triazepine-9-carboxamide] |
| < 50 | C[C@H]1CN(c2cc3c(cn2)NC(c2c(F)cccc2F)=Nc2ccnn2-3)CCO1 [(S)-4-(5-(2,6-difluorophenyl)-6H-pyrazolo[1,5-a]pyrido[3,4-f][1,3,5]triazepin-9-yl)-2-methylmorpholine] |
| < 50 | Fc1cccc(F)c1C1=Nc2c(Cl)cnn2-c2cc(N3C[C@H]4C[C@@H]3CO4)ncc2N1 [(1R,4R)-5-[5-chloro-8-(2,6-difluorophenyl)-2,3,7,9,12-pentazatricyclo[8.4.0.02,6]tetradeca-1(10),3,5,7,11,13-hexaen-13-yl]-2-oxa-5-azabicyclo[2.2.1]heptane] |
| < 50 | O=C(NCCO)c1ccc2c(c1)-n1ncc(Cl)c1N=C(c1c(F)cccc1F)N2 [3-chloro-5-(2,6-difluorophenyl)-N-(2-hydroxyethyl)-6H-pyrazolo[1,5-a][1,3,5]benzotriazepine-9-carboxamide] |
| < 50 | Fc1cccc(F)c1C1=Nc2c(Cl)cnn2-c2cc(N3CCC34COC4)ccc2N1 [1-[3-chloro-5-(2,6-difluorophenyl)-6H-pyrazolo[1,5-a][1,3,5]benzotriazepin-9-yl]-6-oxa-1-azaspiro[3.3]heptane] |
| < 50 | Fc1cccc(F)c1C1=Nc2c(Cl)cnn2-c2cc(N3CC4CC(C3)O4)ccc2N1 [3-[3-chloro-5-(2,6-difluorophenyl)-6H-pyrazolo [1,5-a][1,3,5]benzotriazepin-9-yl]-6-oxa-3-azabicyclo [3.1.1]heptane] |
| < 50 | OC1CCN(c2ccc3c(c2)-n2ncc(Cl)c2N=C(c2c(F)cccc2F)N3)C1 (racemic) [1-[3-chloro-5-(2,6-difluorophenyl)-6H-pyrazolo[1,5-a][1,3,5]benzotriazepin-9-yl]pyrrolidin-3-ol] |
